“And” between values parts separate entries of the source, which are not always exact repeats. Equal values may be shown once. Read-outs that look alike come from different tables or passages of the source.
How the values were obtained:
[1] = test system: rat BLM induced lung fibrosis model; experiment: Rat bleomycin induced lung fibrosis model, Phase II (efficacy); details: bleomycin rats, LYT-100 400 mg/kg QD / nintedanib 60 mg/kg BID
Protocol: For Groups 4, 5, 6, and 7, bleomycin and vehicle dosing were conducted as indicated in Table 28 (0.45 mg/kg, at 1696 IU/mg of Bleomycin or saline on Day 1, 2, 3, 6 and 7).

patients with IPF [2] = details: cited from earlier work
CYP1A2 = target: T1, CYP1A2 (Homo sapiens, UniProt P05177); experiment: In vitro stability with recombinant human CYP1A2; type: in vitro ADME; details: recombinant human isozyme; read-out: t1/2 following incubation with CYP1A2 (converted)
T1 construct: host or cells: heterologous cell systems (not specified)
T1 sequence (P05177 1-516): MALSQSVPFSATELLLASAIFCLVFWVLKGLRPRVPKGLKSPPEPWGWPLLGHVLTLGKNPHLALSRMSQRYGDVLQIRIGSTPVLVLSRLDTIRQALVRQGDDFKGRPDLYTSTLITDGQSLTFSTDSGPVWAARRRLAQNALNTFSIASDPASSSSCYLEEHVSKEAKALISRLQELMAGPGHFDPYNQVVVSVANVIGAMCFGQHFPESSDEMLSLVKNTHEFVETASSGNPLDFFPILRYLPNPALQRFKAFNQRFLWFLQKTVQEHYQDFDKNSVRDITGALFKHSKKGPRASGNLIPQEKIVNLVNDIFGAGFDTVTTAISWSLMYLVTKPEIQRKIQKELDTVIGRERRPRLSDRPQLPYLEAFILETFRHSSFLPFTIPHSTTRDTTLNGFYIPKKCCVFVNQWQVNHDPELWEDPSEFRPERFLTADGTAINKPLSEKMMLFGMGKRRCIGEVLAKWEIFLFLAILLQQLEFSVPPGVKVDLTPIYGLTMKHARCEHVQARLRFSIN
Protocol: (§1) The half-life (t½) of each test article was determined.

older, healthy subjects = experiment: Crossover study Part 2: safety and tolerability (TEAEs), fed and fasted; type: in vivo, human
Text: Over-encapsulation was utilized to maintain study blind. […] Approximately 50 older healthy female and male adult subjects (1:1 ratio) were randomized into 1 of 2 cohorts:Cohort 1 or Cohort 2, N=˜25 subjects per cohort. Subjects in each cohort were randomized to treatment sequence as follows: • Sequence A: Pirfenidone to LYT-100 • Sequence B: LYT-100 to pirfenidone

patients with IPF [3] = details: cited from earlier work; for patients with IPF progression (decline ≥10% in % FVC or death over 52 weeks): Nathan 2018
[4] = study PIPF-005, 801 mg three times daily (2403 mg/day), healthy older subjects; cited from earlier work
[5] = test system: patients with Idiopathic Pulmonary Fibrosis (IPF); experiment: IPF trial Part A: safety and tolerability (TEAEs, AESI, dose modifications, discontinuations); type: in vivo; details: 801 mg TID (N = 63)
Protocol: The primary objective was to determine the dose(s) to carry into Phase 3. […] Patients were randomized to one of the four treatments in a 1:1:1:1 ratio and stratified based on prior exposure to nintedanib (<6 months) versus nintedanib-naïve patients. Patients who completed the Double-blind Treatment Period (Part A) were offered participation in the Long-term Extension (Part B). […] For patients who participated in Part B, the follow-up was conducted at the end of Part B. A graphical illustration of an embodiment of the trial design is provided as FIG. 24B.
Safety endpoints included: Adverse events, concomitant medications, clinical laboratory findings (chemistry, hematology, urinalysis), physical examinations, ECGs, and vital signs. These will be summarized descriptively, where appropriate.
Tolerability endpoints included: Frequency of dose modifications (reductions and interruptions), time to first dose modification, (reduction or interruption), duration of adverse events of special interest, time to treatment discontinuation due to an adverse event of special interest and patient reported assessment of IPF symptoms, side-effects, severity, change and satisfaction.
In this study, AEs are reported for all patients from the time of consent until the completion of the Follow-up visit. AEs reported prior to the first dose are denoted as pre-treatment. SAEs are reported for all patients (randomized or not) from the time of consent. AEs reported from the time of consent to confinement on Day 0 were recorded as pre-treatment AEs.
Treatment emergent adverse events (TEAEs) are defined as an AE that occurs following first dose of study medication and were evaluated from the first administration of study drug on Day 1 until the Follow-up visit. […]
This study evaluated in particular the tolerability based on prioritized gastrointestinal adverse events (GI AEs). […]

CYP2D6 = target: T2, CYP2D6 (Homo sapiens, UniProt P10635); experiment: In vitro stability with recombinant human CYP2D6; type: in vitro ADME; details: recombinant human isozyme; read-out: t1/2 following incubation with CYP2D6 (converted)
T2 construct: host or cells: heterologous cell systems (not specified)
Protocol: as §1

CYP2C19 = target: T3, CYP2C19 (Homo sapiens, UniProt P33261); experiment: In vitro stability with recombinant human CYP2C19; type: in vitro ADME; details: recombinant human isozyme; read-out: t1/2 following incubation with CYP2C19 (converted)
T3 construct: host or cells: heterologous cell systems (not specified)
Protocol: as §1

[6] = test system: patients with Idiopathic Pulmonary Fibrosis (IPF); experiment: IPF trial Part A: clinical laboratory parameters, liver; type: in vivo, human; details: 801 mg TID (N = 63), N1 62
clinical = details: both sexes, human, in vivo, 550 mg
Protocol: Over-encapsulation was utilized to maintain study blind. […] Approximately 50 older healthy female and male adult subjects (1:1 ratio) were randomized into 1 of 2 cohorts:Cohort 1 or Cohort 2, N=˜25 subjects per cohort.
There was a single AM fasting dose on Day 4 for both drugs. There was a 6-day wash-out period between drug cross-over.
Subjects were discharged on Day 4 following successful completion of all assessments and at the Investigator's discretion.
Subjects were then administered a single dose of their randomized treatment on the morning of Day 14 following an overnight fast of at least 8 hours. Subjects were discharged on Day 14 following successful completion of all assessments and at the Investigator's discretion.
An evening snack was served ≥3 hours following evening study medication administration. On Day 4 (Treatment Period 1) and Day 14 (Treatment Period 2), subjects were administered their assigned study drug once in the morning following an overnight fast of at least 8 hours (with approximately 240 mL of non-carbonated water). No additional fluids were allowed during the 1 hour pre- and post-dose.
Blood samples for PK were collected for Cohorts 1 and 2 at specified times during both periods, as follows: • Days 1 & 11:0 (pre-morning dose) • Days 2 & 12: no sampling. • Days 3 & 13:0 (pre-morning dose), and 1, 2, 3, 4, 6 (pre-mid-day dose), 7, 8, 9, 10, 12 (pre-evening dose), 13, 14, 15, 16, and 17 hours post-morning dose • Days 4 & 14:0 (pre-morning dose), and 1, 2, 3, 4, 6 (post-dose),

[7] = observational study (Cottin 2018)
[8] = pooled phase 3 (Noble 2016), one year, vs placebo

T3 sequence (P33261 whole entry): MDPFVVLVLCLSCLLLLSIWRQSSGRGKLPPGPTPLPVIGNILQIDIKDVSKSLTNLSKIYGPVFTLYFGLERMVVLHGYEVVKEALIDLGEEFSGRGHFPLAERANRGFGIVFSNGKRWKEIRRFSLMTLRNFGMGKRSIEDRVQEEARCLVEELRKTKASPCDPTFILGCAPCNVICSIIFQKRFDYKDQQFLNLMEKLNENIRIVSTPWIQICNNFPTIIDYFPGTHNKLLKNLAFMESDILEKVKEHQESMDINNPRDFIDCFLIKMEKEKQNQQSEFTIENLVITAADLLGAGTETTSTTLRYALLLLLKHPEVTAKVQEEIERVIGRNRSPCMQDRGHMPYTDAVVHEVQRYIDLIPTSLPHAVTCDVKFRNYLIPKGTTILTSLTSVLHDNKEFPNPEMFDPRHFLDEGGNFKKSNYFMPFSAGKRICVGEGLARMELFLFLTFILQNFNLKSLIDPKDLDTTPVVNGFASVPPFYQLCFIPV
T2 sequence (P10635 whole entry): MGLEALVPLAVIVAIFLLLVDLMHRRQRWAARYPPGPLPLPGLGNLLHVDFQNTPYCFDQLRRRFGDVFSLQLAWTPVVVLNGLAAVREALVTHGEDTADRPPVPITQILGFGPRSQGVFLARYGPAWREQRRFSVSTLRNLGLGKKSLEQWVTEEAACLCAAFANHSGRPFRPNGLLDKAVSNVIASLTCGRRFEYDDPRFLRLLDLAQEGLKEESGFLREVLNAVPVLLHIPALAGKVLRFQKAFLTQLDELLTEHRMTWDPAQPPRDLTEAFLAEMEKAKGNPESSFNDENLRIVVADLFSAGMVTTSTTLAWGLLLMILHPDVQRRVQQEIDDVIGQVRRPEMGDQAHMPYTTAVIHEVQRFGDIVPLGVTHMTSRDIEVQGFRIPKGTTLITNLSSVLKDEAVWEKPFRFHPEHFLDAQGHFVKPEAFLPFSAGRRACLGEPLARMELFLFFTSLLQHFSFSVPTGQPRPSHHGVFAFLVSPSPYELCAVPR

## COC(=O)c1ccc2c(c1)NC(=O)/C2=C(\Nc1ccc(N(C)C(=O)CN2CCN(C)CC2)cc1)c1ccccc1 [Nintedanib, nintedanib, reference compound]
[1]; Day 8-27
  hydroxyproline content (μg per mg of wet lung) vs bleomycin/vehicle: reduced hydroxyproline content
  lung fibrosis scores (histopathology) vs bleomycin/vehicle: did not affect the fibrosis scores
  lung sections with fibrosis Score 1: 37%
  lung sections with fibrosis Score 2: 33%
  lung weight ratio (% of body weight) vs bleomycin/vehicle: trend for lower lung weight ratios
  mean lung weight vs bleomycin/vehicle: reduced lung weight
  median lung fibrosis scores vs bleomycin/vehicle: reduced median fibrosis scores
  total left lung hydroxyproline (μg per left lung) vs bleomycin/vehicle: lower levels of total hydroxyproline
[1]; oral gavage Day 8-27
  body weight gain: showed modest improvement after Day 8 and the rate of body weight gain remained slower compared with the other groups

## Cc1ccc(=O)n(-c2ccccc2)c1 [Pirfenidone, pirfenidone, reference compound]
Patients with IPF [2]; [7]
  discontinuations due to adverse events associated with pirfenidone: 27.9%
  patients on a lower dose by two years: 13.8%
  patients who had discontinued treatment by two years: 64.9%
Patients with IPF [2]; observational study of 1,009 IPF patients (Cottin 2018), FIG. 1B
  patients still on full dose (2,403 mg/day) by two years: 21.3% and 21%
CYP1A2
  half-life: 3.18 h
older, healthy subjects; Part 2
  deaths or serious AEs: No deaths or serious AEs
older, healthy subjects; in vivo
  TEAEs leading to study discontinuation, subjects: one
Patients with IPF [3]; <90% dose intensity
  patients with IPF progression (decline ≥10% in % FVC or death over 52 weeks): 21.6%
Patients with IPF [3]; >90% dose intensity
  patients with IPF progression (decline ≥10% in % FVC or death over 52 weeks): 11.6%
Patients with IPF [3]; pooled phase 3 (Nathan 2018)
  rate of permanent dose reductions: 31.5%
  rate of treatment discontinuation: 15.2%
Patients with IPF [3]; pooled phase 3 (Noble 2016), 1 year, vs placebo
  reduction of risk of death or disease progression: 38%
Patients with IPF [3]; pooled phase 3 (Noble 2016), 1 year
  FVC change, absolute difference vs placebo: 148 mL
Patients with IPF [3]; [8]
  increase in proportion of patients with no decline in FVC % predicted: 59.3%
  reduction in proportion of patients with ≥10% decline in FVC % predicted or death: 43.8%
Patients with IPF [3]; pooled phase 3 (Noble 2016), pirfenidone group
  mean change from baseline to 1 year in FVC: -216 mL
[4]
  Cmax: 11850 ng/mL
[5]
  Discontinued, Primary Reason: Death: 0 n (%)
CYP2D6
  half-life: 2.3 h
CYP2C19
  half-life: 2.13 h
[6]
  Alanine Aminotransferase (U/L) at Worst Post-Baseline, 3-5 ULN: 1 (1.6) n (%)
  Alanine Aminotransferase (U/L) at Worst Post-Baseline, 5-8 ULN: 0 n (%)
  Alanine Aminotransferase (U/L) at Worst Post-Baseline, >8 ULN: 0 n (%)
  Alanine Aminotransferase (U/L) at Worst Post-Baseline, Total (>3 ULN): 1 (1.6) n (%)
  Alanine Aminotransferase or Aspartate Aminotransferase (U/L) at Worst Post-Baseline, 3-5 ULN: 1 (1.6) n (%)
  Alanine Aminotransferase or Aspartate Aminotransferase (U/L) at Worst Post-Baseline, 5-8 ULN: 0 n (%)
  Alanine Aminotransferase or Aspartate Aminotransferase (U/L) at Worst Post-Baseline, >8 ULN: 0 n (%)
  Alanine Aminotransferase or Aspartate Aminotransferase (U/L) at Worst Post-Baseline, Total (>3 ULN): 1 (1.6) n (%)
  Aspartate Aminotransferase (U/L) at Worst Post-Baseline, 3-5 ULN: 0 n (%)
  Aspartate Aminotransferase (U/L) at Worst Post-Baseline, 5-8 ULN: 0 n (%)
  Aspartate Aminotransferase (U/L) at Worst Post-Baseline, >8 ULN: 0 n (%)
  Aspartate Aminotransferase (U/L) at Worst Post-Baseline, Total (>3 ULN): 0 n (%)
clinical; AUC0-24, parent
  AUC(0-t): 44100 ng·h/mL
clinical; Cmax, parent
  Cmax: 12700 ng/mL

Source: patent publication US12622899B2 (PureTech LYT 100, Inc., priority 2018, dated 2026)
